Reference: article PMC12005229, “Final results from the phase Ia/Ib study of the novel bromodomain and extra-terminal domain inhibitor, BI 894999, in patients with advanced solid tumors or diffuse large B-cell lymphoma” (ESMO Open, 2025)

How the values were obtained:
[1] = review of non-Good Laboratory Practice preclinical assays for cardiac toxicity; details: review prompted by elevated troponin T
Text: Some patients experienced elevated troponin T levels, leading to a review of troponin T levels, electrocardiogram data, clinical summaries, and non-Good Laboratory Practice preclinical assays. […] This also corresponded with a lack of cardiotoxicity reported in preclinical studies in animals[17] and this was not a toxicity previously reported with BET inhibitors.[35] It was concluded that the cause of troponin T elevation may be multifactorial, but not clinically significant to preclude further clinical development.[17]

BRD4-BD1 = system: BRD4-BD1; set-up: method as in PMID 35444289; details: read-out: IC50, inhibition of interaction of acetylated histone H4-derived peptide with BRD4-BD1; cited from earlier work
[2] = system: colorectal cancer (CRC) cell lines; set-up: method as in earlier work; details: cited from earlier work

In the case of `CNc1nc(-c2nc3ccc(N4CCN(C)CC4)cc3n2Cc2ccccc2)cn2c(C)nnc12` [BI 894999], the “preclinical evidence of cardiac toxicity” value [1] is given as “no preclinical evidence of potential cardiac toxicity”, the IC50 (BRD4-BD1) is given as 5 ± 3 nM and the “activity against colorectal cancer (CRC) cell lines” value [2] is given as “demonstrated activity”.
